These results are taken from patent US10125098B2, “Therapeutic compounds and methods of use thereof” (GENENTECH, INC., priority 2014, dated 2018).

For one series, the target named is T1, hNav1.7 (Homo sapiens, UniProt Q15858).
T1 construct: expressed in transfected cells
As to the kind of experiment: Tritiated compound binding (LBA) to membranes from cells expressing hNav1.7 and the β1 subunit, competitive binding. The conditions noted are these: competitive binding vs 100 pM [3H]compound, 18 h, room temperature, membranes with hNav1.7 and β1 subunit. In short, it runs like this:
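Competitive displacement of 100 pM [3H]compound (tritiated methyl analogue of formula (I)) from hNav1.7/β1 membranes, 18 h at room temperature in NaCl/Tris pH 7.4 buffer containing 0.01% BSA. 1 μM unlabeled compound set non-specific binding. Bound label quantified by scintillation after filtration; 4-parameter fit gave IC50.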

The next series deals with T2, human NaV1.7 (Homo sapiens, UniProt Q15858).
T2 construct: permanently transfected with an expression vector containing the full-length cDNA coding for the desired human sodium channel α-subunit; expressed in transfected cells; host or cells: HEK-293
Briefly: Patch voltage clamp electrophysiology assay (EP), NaV1.7. The format is cell-based. Conditions: HEK-293 cells stably expressing NaV1.7 with β1 subunit; whole-cell patch clamp, membrane potential −60 mV (inactivated state). In short, it runs like this:
(§1)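 Percent block is the drop in sodium current after compound wash-on, measured by a test pulse following 20 ms at −150 mV from a −60 mV inactivating holding potential.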

The next series concerns the target T3, NaV1.5 (Homo sapiens, UniProt Q14524).
T3 construct: permanently transfected with an expression vector containing the full-length cDNA coding for the desired human sodium channel α-subunit; expressed in transfected cells; host or cells: HEK-293
As to the kind of experiment: Patch voltage clamp electrophysiology assay (EP), NaV1.5. The format is cell-based. The method in brief:
as §1

The mark [1] stands for this setting: HEK-293 cells stably expressing NaV1.5 with β1 subunit, whole-cell patch clamp, membrane potential −60 mV (inactivated state), read-out: Nav1.5.

Like-named read-outs stand apart in the source and are kept apart here.

T2 sequence (Q15858 1-1977 isoform Q15858-3): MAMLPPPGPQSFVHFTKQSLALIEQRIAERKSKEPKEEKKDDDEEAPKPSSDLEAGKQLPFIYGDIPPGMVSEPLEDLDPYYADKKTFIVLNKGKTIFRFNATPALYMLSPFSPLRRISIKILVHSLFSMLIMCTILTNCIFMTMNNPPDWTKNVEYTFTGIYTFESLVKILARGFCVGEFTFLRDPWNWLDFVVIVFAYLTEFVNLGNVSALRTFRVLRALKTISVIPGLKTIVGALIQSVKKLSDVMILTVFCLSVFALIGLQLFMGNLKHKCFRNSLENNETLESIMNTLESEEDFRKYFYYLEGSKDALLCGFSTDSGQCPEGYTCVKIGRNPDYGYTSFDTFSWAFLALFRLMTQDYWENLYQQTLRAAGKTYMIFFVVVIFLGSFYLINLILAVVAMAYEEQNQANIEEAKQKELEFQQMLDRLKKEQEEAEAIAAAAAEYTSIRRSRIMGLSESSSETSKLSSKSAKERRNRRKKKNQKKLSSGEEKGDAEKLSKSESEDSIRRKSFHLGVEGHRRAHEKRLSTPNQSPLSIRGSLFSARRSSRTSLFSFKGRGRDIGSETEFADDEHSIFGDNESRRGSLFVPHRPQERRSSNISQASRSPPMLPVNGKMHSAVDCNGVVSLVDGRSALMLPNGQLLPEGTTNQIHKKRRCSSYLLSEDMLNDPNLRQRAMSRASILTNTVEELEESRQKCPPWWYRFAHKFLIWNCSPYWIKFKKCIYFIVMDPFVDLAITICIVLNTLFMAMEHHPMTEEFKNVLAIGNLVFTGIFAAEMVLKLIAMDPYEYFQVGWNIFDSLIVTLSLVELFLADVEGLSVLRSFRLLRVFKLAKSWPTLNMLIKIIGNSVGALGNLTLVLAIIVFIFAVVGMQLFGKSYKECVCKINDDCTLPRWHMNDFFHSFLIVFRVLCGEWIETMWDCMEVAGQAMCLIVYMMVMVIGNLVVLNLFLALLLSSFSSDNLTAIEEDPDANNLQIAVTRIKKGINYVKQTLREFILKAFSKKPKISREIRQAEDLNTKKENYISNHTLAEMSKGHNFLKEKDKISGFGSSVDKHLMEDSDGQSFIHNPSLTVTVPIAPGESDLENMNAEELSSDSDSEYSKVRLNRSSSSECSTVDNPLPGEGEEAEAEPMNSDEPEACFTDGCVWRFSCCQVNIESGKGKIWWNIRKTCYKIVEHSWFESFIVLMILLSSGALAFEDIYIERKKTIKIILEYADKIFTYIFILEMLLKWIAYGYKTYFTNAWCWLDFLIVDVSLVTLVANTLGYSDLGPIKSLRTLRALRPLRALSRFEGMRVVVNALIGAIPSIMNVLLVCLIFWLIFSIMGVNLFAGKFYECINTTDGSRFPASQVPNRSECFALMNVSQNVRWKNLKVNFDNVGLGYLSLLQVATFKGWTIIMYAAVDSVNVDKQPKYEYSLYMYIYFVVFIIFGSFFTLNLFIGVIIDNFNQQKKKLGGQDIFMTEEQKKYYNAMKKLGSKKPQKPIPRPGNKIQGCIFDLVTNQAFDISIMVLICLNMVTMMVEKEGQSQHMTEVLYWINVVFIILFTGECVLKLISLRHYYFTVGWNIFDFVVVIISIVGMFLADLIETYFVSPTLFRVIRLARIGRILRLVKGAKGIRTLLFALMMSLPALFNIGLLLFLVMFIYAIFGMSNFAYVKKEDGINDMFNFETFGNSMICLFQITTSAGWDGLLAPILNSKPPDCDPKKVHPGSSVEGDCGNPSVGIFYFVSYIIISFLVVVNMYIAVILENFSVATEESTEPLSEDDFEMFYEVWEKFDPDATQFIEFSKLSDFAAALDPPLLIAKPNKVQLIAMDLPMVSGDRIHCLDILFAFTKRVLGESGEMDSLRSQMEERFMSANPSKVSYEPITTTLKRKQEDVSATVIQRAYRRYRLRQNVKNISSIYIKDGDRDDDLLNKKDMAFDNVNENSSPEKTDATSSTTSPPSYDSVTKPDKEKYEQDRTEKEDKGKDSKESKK
T2 sequence (Q07699 19-218 partner): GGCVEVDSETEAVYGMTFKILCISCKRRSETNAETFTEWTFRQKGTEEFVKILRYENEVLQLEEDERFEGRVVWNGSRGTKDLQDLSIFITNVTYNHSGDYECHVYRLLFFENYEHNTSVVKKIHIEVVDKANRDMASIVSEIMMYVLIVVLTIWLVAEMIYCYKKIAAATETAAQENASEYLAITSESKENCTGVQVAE
T1 sequence (Q15858 1-1977 isoform Q15858-3): as the sequence (Q15858 1-1977 isoform Q15858-3) above
T1 sequence (Q07699 19-218 partner): as the sequence (Q07699 19-218 partner) above
T3 sequence (Q14524 whole entry): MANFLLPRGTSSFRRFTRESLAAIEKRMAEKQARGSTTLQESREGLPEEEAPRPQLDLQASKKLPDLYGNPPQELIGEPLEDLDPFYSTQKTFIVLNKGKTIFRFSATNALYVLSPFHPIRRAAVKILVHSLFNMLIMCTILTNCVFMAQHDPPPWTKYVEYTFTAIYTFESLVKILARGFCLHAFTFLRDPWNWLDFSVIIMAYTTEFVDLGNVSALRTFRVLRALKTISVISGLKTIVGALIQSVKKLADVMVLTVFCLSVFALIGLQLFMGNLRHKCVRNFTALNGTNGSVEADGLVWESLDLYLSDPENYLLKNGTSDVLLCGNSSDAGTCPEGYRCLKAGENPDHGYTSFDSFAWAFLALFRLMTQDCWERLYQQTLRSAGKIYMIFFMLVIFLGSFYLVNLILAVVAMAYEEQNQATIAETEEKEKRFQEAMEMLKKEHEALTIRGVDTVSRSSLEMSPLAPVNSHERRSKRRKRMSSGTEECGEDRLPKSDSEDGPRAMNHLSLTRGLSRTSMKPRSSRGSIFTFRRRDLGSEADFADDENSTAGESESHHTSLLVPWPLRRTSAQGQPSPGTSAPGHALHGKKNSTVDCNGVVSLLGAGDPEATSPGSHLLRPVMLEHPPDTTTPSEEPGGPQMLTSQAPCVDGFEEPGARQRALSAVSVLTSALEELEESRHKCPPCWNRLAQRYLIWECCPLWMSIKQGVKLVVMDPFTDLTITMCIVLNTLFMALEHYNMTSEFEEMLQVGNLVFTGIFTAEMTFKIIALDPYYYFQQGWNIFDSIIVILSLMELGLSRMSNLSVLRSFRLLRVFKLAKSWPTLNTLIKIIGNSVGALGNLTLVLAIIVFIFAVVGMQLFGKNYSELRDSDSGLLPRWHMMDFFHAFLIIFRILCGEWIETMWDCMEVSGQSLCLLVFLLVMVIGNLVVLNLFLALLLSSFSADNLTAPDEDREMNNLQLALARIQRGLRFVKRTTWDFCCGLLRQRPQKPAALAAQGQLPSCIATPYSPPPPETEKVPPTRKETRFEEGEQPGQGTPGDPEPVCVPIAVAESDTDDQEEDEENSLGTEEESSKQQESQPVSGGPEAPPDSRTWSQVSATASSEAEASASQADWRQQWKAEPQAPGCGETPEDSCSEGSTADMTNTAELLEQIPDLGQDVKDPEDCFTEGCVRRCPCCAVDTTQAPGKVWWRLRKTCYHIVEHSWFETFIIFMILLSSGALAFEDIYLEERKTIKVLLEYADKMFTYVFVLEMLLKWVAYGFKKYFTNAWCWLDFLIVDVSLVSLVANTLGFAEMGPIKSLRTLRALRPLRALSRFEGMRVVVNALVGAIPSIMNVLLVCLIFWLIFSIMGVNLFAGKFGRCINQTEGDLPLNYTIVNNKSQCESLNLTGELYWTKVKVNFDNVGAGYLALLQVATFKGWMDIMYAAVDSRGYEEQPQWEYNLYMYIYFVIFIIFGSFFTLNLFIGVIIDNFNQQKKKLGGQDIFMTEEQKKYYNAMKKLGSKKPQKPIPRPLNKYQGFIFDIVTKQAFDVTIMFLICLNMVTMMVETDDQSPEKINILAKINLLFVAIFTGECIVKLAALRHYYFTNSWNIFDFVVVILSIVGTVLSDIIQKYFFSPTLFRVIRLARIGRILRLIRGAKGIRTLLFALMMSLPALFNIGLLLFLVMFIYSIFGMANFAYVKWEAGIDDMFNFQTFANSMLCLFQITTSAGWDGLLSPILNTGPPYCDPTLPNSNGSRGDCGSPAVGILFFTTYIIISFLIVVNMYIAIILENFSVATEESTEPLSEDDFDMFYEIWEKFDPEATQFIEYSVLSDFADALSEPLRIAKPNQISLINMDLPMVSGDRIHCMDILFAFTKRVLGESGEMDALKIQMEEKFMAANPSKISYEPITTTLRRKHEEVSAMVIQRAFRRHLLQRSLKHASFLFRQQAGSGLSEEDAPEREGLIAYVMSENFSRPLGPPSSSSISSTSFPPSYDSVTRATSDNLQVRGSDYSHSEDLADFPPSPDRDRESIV

As to `O=C(O)[C@@H]1CCCN1C(=O)c1cc(C2CC2)c(OC2CCN(Cc3cc(Cl)cc(Cl)c3)CC2)cc1F` [Example 112, (S)-1-(5-cyclopropyl-4-(1-(3,5-dichlorobenzyl)piperidin-4-yloxy)-2-fluorobenzoyl)pyrrolidine-2-carboxylic acid], the IC50 on hNav1.7 is 520 nM; against human NaV1.7 it was 2000 nM; on NaV1.5 (human, HEK-293 cells stably expressing human NaV1.5 with β1 subunit, pH 7.4, HEK-293 cells stably expressing NaV1.5 with β1 subunit, whole-cell patch clamp, membrane potential −60 mV (inactivated state)), not below 30000 nM.
For the molecule `O=C(O)[C@@H]1C[C@H](C(F)(F)F)CN1C(=O)c1cc(C2CC2)c(OCC23CC4CC(CC(C4)C2)C3)cc1F` [Example 211, (2S,4S)-1-(4-((adamantan-1-yl)methoxy)-5-cyclopropyl-2-fluorobenzoyl)-4-(trifluoromethyl)pyrrolidine-2-carboxylic acid], the IC50 turned out to be 2300 nM at hNav1.7, 6700 nM against human NaV1.7 and 14000 nM at NaV1.5 (setting [1]).
For the molecule `CC1O[C@H](C)[C@@H](C(=O)O)N1C(=O)c1cc(C2CC2)c(OCC23CC4CC(CC(C4)C2)C3)cc1F` (stereo partly drawn) [Example 166, (4S,5R)-3-[4-(1-adamantylmethoxy)-5-cyclopropyl-2-fluoro-benzoyl]-2,5-dimethyl-oxazolidine-4-carboxylic acid], the IC50 at hNav1.7 is 90 nM; against human NaV1.7, 750 nM; on NaV1.5 (setting [1]) it was 13000 nM.
Regarding `O=C(O)[C@@H]1CC2(CC2)CN1C(=O)c1cc(C2CC2)c(OCC23CC4CC(CC(C4)C2)C3)cc1F` [Example 200, (S)-5-(4-(adamantan-1-ylmethoxy)-5-cyclopropyl-2-fluorobenzoyl)-5-azaspiro[2.4]heptane-6-carboxylic acid], the figures for the IC50 at hNav1.7, against human NaV1.7 and at NaV1.5 were 84 nM, 790 nM and 12000 nM, respectively.
For `COC[C@H](c1cc(Cl)cc(Cl)c1)N1CCC(COc2cc(F)c(C(=O)N3C[C@H](F)C[C@H]3C(=O)O)cc2C2CC2)CC1` [Example 130, (2S,4R)-1-(5-cyclopropyl-4-((1-((S)-1-(3,5-dichlorophenyl)-2-methoxyethyl)piperidin-4-yl)methoxy)-2-fluorobenzoyl)-4-fluoropyrrolidine-2-carboxylic acid], the IC50 on hNav1.7 was found to be 27 nM; on human NaV1.7, 160 nM; on NaV1.5 (setting [1]), 14000 nM.
Turning to `C[C@H](NC(=O)c1cc(C2CC2)c(OCC23CC4CC(CC(C4)C2)C3)cc1F)C(=O)O` [Example 11, (S)-2-(4-(adamantan-1-ylmethoxy)-5-cyclopropyl-2-fluorobenzamido)propanoic acid], the IC50 on hNav1.7 was 200 nM; at human NaV1.7, 36.1 nM; on NaV1.5 (setting [1]), 2190 nM.
The like results for `O=C(O)[C@@H]1C[C@@H](F)CN1C(=O)c1cc(C2CC2)c(OCC2(F)CCN(Cc3cc(C(F)(F)F)cc(Cl)c3F)CC2)cc1F` [Example 102, (2S,4R)-1-(4-((1-(3-chloro-2-fluoro-5-(trifluoromethyl)benzyl)-4-fluoropiperidin-4-yl)methoxy)-5-cyclopropyl-2-fluorobenzoyl)-4-fluoropyrrolidine-2-carboxylic acid] were, in that order, 65 nM, 330 nM and 23000 nM.
The like results for `CCc1cc(C(=O)N2CCC[C@H]2C(=O)O)c(F)cc1OCC12CC3CC(CC(C3)C1)C2` [Example 89, (S)-1-(4-(adamantan-1-ylmethoxy)-5-ethyl-2-fluorobenzoyl)pyrrolidine-2-carboxylic acid] were, in that order, 130 nM, 790 nM and 17000 nM.
Consider `O=C(O)[C@@H]1CCC(=O)N1C(=O)c1cc(C2CC2)c(OCC23CC4CC(CC(C4)C2)C3)cc1F` [Example 198, (S)-1-(4-(adamantan-1-ylmethoxy)-5-cyclopropyl-2-fluorobenzoyl)-5-oxopyrrolidine-2-carboxylic acid], for which the IC50 was found to be 1100 nM on hNav1.7, 4500 nM at human NaV1.7 and 18000 nM on NaV1.5 (setting [1]).
